FAM = 5(6)-carboxyfluorescein

In this experiment the test system is NSC-34 cells. The experiment can be described thus: Evaluation of cell membrane permeability by flow cytometry (MFI of FAM fluorescence). Type of experiment: cell-based, mouse. The conditions noted are these: for MFI: NSC-34 cells; for value of MFI compared with Reference Example 1 (FAM alone): 20 μM. The procedure: As a culture medium of the NSC-34 cell, 10% fetal bovine serum (FBS)-containing Dulbecco's modified Eagle's medium (DMEM (Cat No. 044-29765, manufactured by FUJIFILM Wako Pure Chemical Corporation)) was used. The samples 1 to 6 were each dissolved in dimethyl sulfoxide (DMSO) to prepare sample solutions 1 to 6 with a sample concentration of 4 mM. Then, the sample solutions were diluted in the culture medium to prepare 40 μM sample solutions 1 to 6.
The NSC-34 cell was suspended in the culture medium to prepare a cell suspension of 2×10^5 cells/mL. The cell suspension was added by 1 mL to a well of a commercially available six-hole (well) plate (manufactured by AGC TECHNO GLASS Co., Ltd.) so as to seed the NSC-34 cell to be 2× 10^5 cells/well. […] After that, the six-well plate was left at rest in a cell culture apparatus, and incubated for 20 hours at 37° C. under a 5% CO2 condition.
After the 20-hour incubation, the culture supernatant was removed from the well and the cells in the well were cleaned twice with 1 mL of PBS. Next, 100 μL of the 0.25% trypsin/EDTA solution was added to the well and the incubation was performed for three minutes at 37° C. After the incubation, 900 μL of the culture medium was added to the well to deactivate the trypsin. Subsequently, the cell suspension in the well was transferred to a tube and the cells were collected. This tube was subjected to five-minute centrifugal separation at 4° C. under a condition of 210×g. After the centrifugal separation, the supernatant was removed and the precipitate (cell pellet) was suspended (cleaned) with 1 mL of PBS, which was followed by the centrifugal separation under the same condition as that described above. After this operation was repeated twice, the supernatant was removed and thus, the cells (cell pellet) cultured in the culture medium containing the sample 1 were obtained.
Regarding the obtained cells (cell pellet), the cell membrane permeability of the sample 1 was analyzed using a flow cytometer. As the flow cytometer, On-Chip Flowcytometer (manufactured by On-Chip Biotechnologies Co., LTD.) was used.
For such an analysis, the obtained cell pellet was suspended with 100 μL of on-chip T buffer to prepare a cell suspension for analysis.
Using the aforementioned flow cytometer, gating based on forward scatter (FSC) and side scatter (SSC) was performed to set a gate about a cell group to be analyzed, and the fluorescence intensity was measured about the cell group in this gate. Note that the number of cells of the cell group was set to at least 10000 or more in the analysis. The fluorescence intensity was measured using a fluorescence detector FL2 of the flow cytometer (optimum detection wavelength around 543 nm) capable of detecting the fluorescence wavelength of FAM. Regarding this measurement result, the analysis was performed using commercially available analysis software “FlowJo” (manufactured by TreeStar) to obtain mean fluorescence intensity (MFI) of the cell group to be measured. […]
(In general: In flow cytometry, cells or beads pass a laser one at a time.)

[1] abbreviates: Test 1, sample/FAM concentration 20 μM in culture medium, 20 hours incubation at 37° C., detector FL2.
[2] abbreviates: Test 2, sample/FAM concentration 25 μM in culture medium, otherwise similar to Test 1.

Regarding “5(6)-carboxyfluorescein [Reference Example 1, reference compound]”, the MFI is, setting by setting: under setting [1], 10.9; under setting [2], 13.1.
Consider Ac-PD-FAM [Example 5], for which the “value of MFI compared with Reference Example 1 (FAM alone)” value (Test 1) is listed as “lower”. In addition, the MFI under setting [1] amounted to 7.8.
In the same order, the values of Ac-PE-FAM [Example 6] are “lower” and 7.4.
Ac-PEPDG-FAM [Example 4] returned an MFI under setting [1] of 19.9.
In turn, “Ac-PEPEPEPEPEPEG-FAM (Ac-PEPEPEPEPEPEG-{FAM}) [Example 8, construct: N-terminally acetylated peptide 8 bonded to FAM]” registered an MFI under setting [2] of 29.3.
Regarding “Ac-PDPEPDPEPDPEG-FAM (Ac-PDPEPDPEPDPEG-{FAM}) [Example 9, construct: N-terminally acetylated peptide 9 bonded to FAM]”, the MFI under setting [2] is recorded as 25.1.
The substance Ac-PEPE-FAM [Example 2] registered an MFI under setting [1] of 16.2.
Turning to “Ac-PDPDPDPDPDPDG-FAM (Ac-PDPDPDPDPDPDG-{FAM}) [Example 7, construct: N-terminally acetylated peptide 7 bonded to FAM]”, the MFI under setting [2] worked out at 27.5.
Regarding Ac-PDPEG-FAM [Example 3], under setting [1], the MFI was 18.9.
Still for that read-out and setting: the same measure for Ac-PDPD-FAM [Example 1]: 15.

For the origin of these results see US20260209270A1, “Synthetic Peptide And Construct” (TOAGOSEI CO., LTD., priority 2022, published 2026).
